Measurements taken from ChEMBL document CHEMBL4118220, “Design, synthesis and biological evaluation of phosphopeptides as Polo-like kinase 1 Polo-box domain inhibitors” (Bioorg Med Chem, 2018).
Values belong to the compound of their own block, whether it stands above or below them. Calls of active or inactive are those of the source. The rule behind the calls is not given here. Square brackets hold non-standard residues; d marks the D form. Peptide text beside a SMILES is read from it. Phe(3,4-Cl2) = N[C@@H](Cc1ccc(Cl)c(Cl)c1)C(=O)O; Phe(4-F) = N[C@@H](Cc1ccc(F)cc1)C(=O)O; pT = C[C@@H](OP(=O)(O)O)[C@H](N)C(=O)O

How the values were obtained:
[1] = biological target: Serine/threonine-protein kinase PLK2 (Homo sapiens, UniProt Q9NYY3); assay: Inhibition of FITC-GPMQTSpTPKNG-OH binding to Plk2 PBD (unknown origin) after 30 mins by fluorescence polarization assay
[2] = biological target: Serine/threonine-protein kinase PLK3 (Homo sapiens, UniProt Q9H4B4); assay: Inhibition of FITC-GPLATSpTPKNG-OH binding to Plk3 PBD (unknown origin) after 30 mins by fluorescence polarization assay
HeLa [3] = assay: Cell cycle arrest in human HeLa cells assessed as accumulation at G2/M phase at 5 to 20 uM after 48 hrs by propidium iodide staining based flow cytometry; format: functional
HeLa [4] = assay: Induction of apoptosis in human HeLa cells assessed as viable cells at 5 uM after 48 hrs by Annexin V-FITC/propidium iodide staining based flow cytometry (reference value: 39.5%); format: functional; settings: read-out: Activity
HeLa [5] = assay: Induction of apoptosis in human HeLa cells assessed as early apoptotic cells at 5 uM after 48 hrs by Annexin V-FITC/propidium iodide staining based flow cytometry (reference value: 0%); format: functional
HeLa [6] = assay: Induction of apoptosis in human HeLa cells assessed as late apoptotic cells at 5 uM after 48 hrs by Annexin V-FITC/propidium iodide staining based flow cytometry (reference value: 0%); format: functional
HeLa [7] = assay: Induction of apoptosis in human HeLa cells assessed as necrotic cells at 5 uM after 48 hrs by Annexin V-FITC/propidium iodide staining based flow cytometry (reference value: 0.5%); format: functional
HeLa [8] = assay: Induction of apoptosis in human HeLa cells assessed as viable cells at 10 uM after 48 hrs by Annexin V-FITC/propidium iodide staining based flow cytometry (reference value: 39.5%); format: functional; settings: read-out: Activity
HeLa [9] = assay: Induction of apoptosis in human HeLa cells assessed as early apoptotic cells at 10 uM after 48 hrs by Annexin V-FITC/propidium iodide staining based flow cytometry (reference value: 0%); format: functional
HeLa [10] = assay: Induction of apoptosis in human HeLa cells assessed as late apoptotic cells at 10 uM after 48 hrs by Annexin V-FITC/propidium iodide staining based flow cytometry (reference value: 0%); format: functional
HeLa [11] = assay: Induction of apoptosis in human HeLa cells assessed as necrotic cells at 10 uM after 48 hrs by Annexin V-FITC/propidium iodide staining based flow cytometry (reference value: 0.5%); format: functional
HeLa [12] = assay: Induction of apoptosis in human HeLa cells assessed as viable cells at 20 uM after 48 hrs by Annexin V-FITC/propidium iodide staining based flow cytometry (reference value: 39.5%); format: functional; settings: read-out: Activity
HeLa [13] = assay: Induction of apoptosis in human HeLa cells assessed as early apoptotic cells at 20 uM after 48 hrs by Annexin V-FITC/propidium iodide staining based flow cytometry (reference value: 0%); format: functional
HeLa [14] = assay: Induction of apoptosis in human HeLa cells assessed as late apoptotic cells at 20 uM after 48 hrs by Annexin V-FITC/propidium iodide staining based flow cytometry (reference value: 0%); format: functional
HeLa [15] = assay: Induction of apoptosis in human HeLa cells assessed as necrotic cells at 20 uM after 48 hrs by Annexin V-FITC/propidium iodide staining based flow cytometry (reference value: 0.5%); format: functional

Chain of Serine/threonine-protein kinase PLK3 (Q9H4B4 whole entry): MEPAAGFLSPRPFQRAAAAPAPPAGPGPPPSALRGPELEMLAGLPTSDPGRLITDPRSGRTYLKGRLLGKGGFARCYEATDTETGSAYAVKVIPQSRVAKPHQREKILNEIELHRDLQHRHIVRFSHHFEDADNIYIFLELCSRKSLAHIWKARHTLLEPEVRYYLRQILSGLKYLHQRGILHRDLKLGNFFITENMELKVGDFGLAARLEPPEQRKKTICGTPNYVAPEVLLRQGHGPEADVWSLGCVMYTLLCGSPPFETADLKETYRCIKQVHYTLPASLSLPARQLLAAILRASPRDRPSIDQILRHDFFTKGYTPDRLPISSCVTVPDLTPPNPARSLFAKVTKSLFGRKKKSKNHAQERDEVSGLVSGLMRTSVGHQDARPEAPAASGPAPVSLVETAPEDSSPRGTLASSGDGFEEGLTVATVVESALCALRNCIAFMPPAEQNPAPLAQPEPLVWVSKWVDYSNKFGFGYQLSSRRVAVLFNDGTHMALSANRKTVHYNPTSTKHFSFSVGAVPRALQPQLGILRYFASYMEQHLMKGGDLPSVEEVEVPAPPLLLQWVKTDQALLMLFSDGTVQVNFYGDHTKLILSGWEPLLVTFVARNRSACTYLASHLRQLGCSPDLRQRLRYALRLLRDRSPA
Chain of Serine/threonine-protein kinase PLK2 (Q9NYY3 whole entry): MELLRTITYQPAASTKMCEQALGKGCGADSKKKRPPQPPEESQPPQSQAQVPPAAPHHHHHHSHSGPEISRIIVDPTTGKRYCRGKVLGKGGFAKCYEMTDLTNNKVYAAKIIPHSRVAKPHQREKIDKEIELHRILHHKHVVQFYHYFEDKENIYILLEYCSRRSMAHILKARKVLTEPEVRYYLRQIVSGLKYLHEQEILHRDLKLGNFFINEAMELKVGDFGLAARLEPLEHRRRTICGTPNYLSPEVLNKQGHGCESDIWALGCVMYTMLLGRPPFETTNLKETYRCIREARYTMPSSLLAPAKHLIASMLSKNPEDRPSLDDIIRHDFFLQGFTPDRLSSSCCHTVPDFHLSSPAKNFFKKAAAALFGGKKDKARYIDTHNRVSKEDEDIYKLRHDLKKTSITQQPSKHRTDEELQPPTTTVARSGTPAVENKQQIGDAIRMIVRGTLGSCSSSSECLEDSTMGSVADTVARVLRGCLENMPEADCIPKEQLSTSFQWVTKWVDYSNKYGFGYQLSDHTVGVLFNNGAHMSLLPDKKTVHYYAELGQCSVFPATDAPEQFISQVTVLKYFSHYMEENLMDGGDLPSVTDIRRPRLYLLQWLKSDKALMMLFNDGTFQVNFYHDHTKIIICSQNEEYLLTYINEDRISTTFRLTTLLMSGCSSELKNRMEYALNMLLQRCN

IC50 [1]: Not Active | IC50 [2]: Not Active
SMILES: CC[C@H](C)[C@H](NC(=O)[C@H](C)NC(=O)[C@@H](NC(=O)[C@H](CO)NC(=O)[C@H](Cc1cnc[nH]1)NC(=O)[C@H](CC(C)C)NC(=O)[C@@H]1CCCN1C(=O)[C@@H]1CCCN1C(=O)[C@H](CC(=O)O)NC(=O)[C@H](Cc1ccc(F)cc1)NC(=O)[C@@H](NC(=O)[C@H](CCC(N)=O)NC(C)=O)[C@@H](C)O)[C@@H](C)OP(=O)(O)O)C(=O)N[C@@H](Cc1ccc(O)cc1)C(=O)N[C@@H](C)C(=O)N[C@@H](CC(N)=O)C(N)=O (Ac-QT[Phe(4-F)]DPPLHS[pT]AIYAN-NH2)

IC50 [1]: Not Active | IC50 [2]: Not Active
SMILES: CC[C@H](C)[C@H](NC(=O)[C@H](C)NC(=O)[C@@H](NC(=O)[C@H](CO)NC(=O)[C@H](Cc1cnc[nH]1)NC(=O)[C@H](CC(C)C)NC(=O)[C@@H]1CCCN1C(=O)[C@@H]1CCCN1C(=O)[C@H](CC(=O)O)NC(=O)[C@H](Cc1ccc(Cl)c(Cl)c1)NC(=O)[C@@H](NC(C)=O)[C@@H](C)O)[C@@H](C)OP(=O)(O)O)C(=O)N[C@@H](Cc1ccc(O)cc1)C(=O)N[C@@H](C)C(=O)N[C@@H](CC(N)=O)C(N)=O (Ac-T[Phe(3,4-Cl2)]DPPLHS[pT]AIYAN-NH2)

IC50 ([1]; read-out: IC50): 13.4 µM | IC50 [2]: Not Active
SMILES: CC[C@H](C)[C@H](NC(=O)[C@H](C)NC(=O)[C@@H](NC(=O)[C@H](CO)NC(=O)[C@H](Cc1cnc[nH]1)NC(=O)[C@H](CC(C)C)NC(=O)[C@@H]1CCCN1C(=O)[C@@H]1CCCN1C(=O)[C@H](CC(=O)O)NC(=O)[C@H](Cc1ccccc1)NC(C)=O)[C@@H](C)OP(=O)(O)O)C(=O)N[C@@H](Cc1ccc(O)cc1)C(=O)N[C@@H](C)C(=O)N[C@@H](CC(N)=O)C(N)=O (Ac-FDPPLHS[pT]AIYAN-NH2)
Activity (HeLa [3]): inactive | viability at 5 µM (HeLa [4]): 100% | Activity (HeLa [5]): 0% | Activity (HeLa [6]): 0% | Activity (HeLa [7]): 0% | viability at 10 µM (HeLa [8]): 100% | Activity (HeLa [9]): 0% | Activity (HeLa [10]): 0% | Activity (HeLa [11]): 0% | viability at 20 µM (HeLa [12]): 100% | Activity (HeLa [13]): 0% | Activity (HeLa [14]): 0% | Activity (HeLa [15]): 0%

IC50 [1]: Not Active | IC50 [2]: Not Active
SMILES: CC[C@H](C)[C@H](NC(=O)[C@H](C)NC(=O)[C@@H](NC(=O)[C@H](CO)NC(=O)[C@H](Cc1cnc[nH]1)NC(=O)[C@H](CC(C)C)NC(=O)[C@@H]1CCCN1C(=O)[C@@H]1CCCN1C(=O)[C@H](CC(=O)O)NC(=O)[C@H](Cc1ccc(Cl)c(Cl)c1)NC(=O)[C@H](CCC(N)=O)NC(C)=O)[C@@H](C)O)C(=O)N[C@@H](Cc1ccc(O)cc1)C(=O)N[C@@H](C)C(=O)N[C@@H](CC(N)=O)C(N)=O (Ac-Q[Phe(3,4-Cl2)]DPPLHSTAIYAN-NH2)
